In patent US20250074908A1, “SALT OF ROCK INHIBITOR, CRYSTAL FORM OF SALT, COMPOSITION, AND PHARMACEUTICAL USE” (WUHAN CREATERNA SCIENCE AND TECHNOLOGY CO., LTD., priority 2022, published 2025):

Legend:
ROCK2 kinase = molecular target: T1, ROCK2 kinase (Homo sapiens, UniProt O75116); assay: In-vitro evaluation of ROCK2 kinase activity (HTRF KinEASE-STK); type: biochemical
T1 construct: purchased Invitrogen PV3759
Procedure: ROCK2 activity screening: ROCK2 activity was detected using a 96-well (Cisbio) time-resolved fluorometric assay. The assay for ROCK2 was performed in the following assay buffer: 5 mM MgCl2 (Sigma), 1 mM DTT (Sigma), and 1× kinase buffer. The kinase buffer was used for dilution. 7.5 μL of ROCK2 kinase (Invitrogen, PV3759) was first added to a 96-well microplate to achieve a final concentration of 0.4 ng/μL, and then […] of compound I (DMSO content: 1% (volume fraction)) was added. The mixture was incubated at room temperature for 0.5 h. To start the reaction, the kinase buffer was used to mix ATP (Aladdin) and the substrate STK-substrate 2-biotin. 7.5 μL of the mixed solution was added to the microplate to achieve final concentrations of 6.739 μM and 1 μM. The resulting mixture was incubated at room temperature for another 2 h. 5 mL of detection buffer was mixed with STK antibody-Cryptate, and then an appropriate volume of the mixture was mixed with an equal volume of streptavidin-XL665. 10 μL of the resulting mixture was added to the microplate to stop the reaction. After further incubation for about 1 h, the microplate was read on a Molecular Devices Spectra Max i3x multifunctional microplate reader. […]

ROCK1 kinase = molecular target: T2, ROCK1 kinase (Homo sapiens, UniProt Q13464); assay: In-vitro evaluation of ROCK1 kinase selectivity (HTRF KinEASE-STK); type: biochemical
T2 construct: purchased Invitrogen
Procedure: ROCK1 activity was detected using a 96-well (Cisbio) time-resolved fluorometric assay. The assay for ROCK1 was performed in the following assay buffer: 5 mM MgCl2 (Sigma), 1 mM DTT (Sigma), and 1× kinase buffer. The kinase buffer was used for dilution. 7.5 μL of ROCK1 kinase (Invitrogen) was first added to a 96-well microplate to achieve a final concentration of 0.4 ng/μL, and then 0.25 μL of the compound (DMSO content: 1%) was added. The mixture was incubated at room temperature for 0.5 h. To start the reaction, the kinase buffer was also used to mix ATP (Aladdin) and the substrate STK-substrate 2-biotin. 7.5 μL of the mixed solution was added to the microplate to achieve final concentrations of 3.53 μM and 1 μM. The resulting mixture was incubated at room temperature for another 2 h. 5 mL of detection buffer was mixed with STK antibody-Cryptate, and then an appropriate volume of the mixture was mixed with an equal volume of streptavidin-XL665. 10 μL of the resulting mixture was added to stop the reaction. After further incubation for about 1 h, the microplate was read on a Molecular Devices SpectraMax i3x multifunctional microplate reader. The kinase buffer, the STK-substrate 2-biotin, the detection buffer, the STK antibody-Cryptate, and the streptavidin-XL665 were all from HTRF KinEASE-STK kit (Cisbio, 1000 tests, 61GSTXLA).

[1] = In-vitro cytotoxicity assay, CCK-8 method; type: cell-based; conditions: human, HepG2 cells
Procedure: In-vitro cytotoxicity assay for compound I was performed in HepG2 cells using the CCK-8 method. HepG2 cells (Beina Bio) in the logarithmic growth phase were collected, the concentration of cell suspension was adjusted, and then the cells were plated on a 96-well cell culture plate at 50000 cells/well. The cells were then incubated in a cell incubator (5%, 37° C.) overnight. After 80%-90% cell confluence in the plate was achieved, medium change was performed, and then the test compound at each concentration gradient or vehicle (DMSO) was added. The resulting mixture was incubated in the cell incubator (5%, 37° C.) for 48 h. After the treatment was completed, the medium in the plate was discarded. The plate was washed twice with PBS, and a CCK-8 working solution (Beyotime) was added at 100 μL per well. The resulting mixture was then incubated at 37° C. for 1.5 h in the dark. The absorbance at OD450 nm was measured for each well on a microplate reader, and the CC50 value of each compound was analyzed and calculated.

[2] = Pharmacokinetic study in rats; type: in vivo, SD rats; conditions: male, SD, rat, in vivo, po, 10 mg/kg
Procedure: Compound I, 2-hydroxyethanesulfonate of compound I, ethanesulfonate (crystal form I) of compound I, tartrate of compound I, and sulfate of compound I were each accurately weighed, and the required volume of vehicle was added. The mixture was stirred for 5 min, then sonicated below 25° C. until no large particles were visible to the naked eye, and further stirred for 30 min until a homogeneous suspension was obtained. The suspension was then used for administration.
Male SPF-grade SD rats (Beijing Vital River Laboratory Animal Technology Co., Ltd.) were given compound I, the 2-hydroxyethanesulfonate of compound I, the ethanesulfonate of compound I (crystal form I), the tartrate of compound I, and the sulfate of compound I by single intragastric administration after an acclimation period (with free access to water and food). Blood was collected from the orbital venous plexus of the rats at 0.167 h, 0.5 h, 1 h, 2 h, 3 h, 4 h, 6 h, 9 h, 12 h, and 24 h after administration. Each blood sample was centrifuged at 3500×g for 10 min at 4° C. The supernatant was then collected, and the concentration of compound I in the plasma was measured by LC-MS/MS (AB Sciex TRIPLE QUAD 3500). The data were analyzed using a non-compartmental model in WinNonlin (version 5.2.1 Pharsight, Mountain View, CA) to obtain PK parameters.

[3] = Chemical stability on storage up to 3 months (HPLC purity), Table 13-4; type: physicochemical; conditions: for Purity (%), 230 nm, Month 1 / Purity (%), 230 nm, Month 3: sealed and protected from light
Procedure: B) The HPLC method used for the stability study was as follows:
The vials were sealed with tin foil and then separately placed under the conditions of 40° C. temperature/75% humidity or 25° C. temperature/60% humidity for about 3 months. The samples after being placed for 0 months, 2 weeks, 1 month and 3 months were taken and each dissolved in a diluent to prepare a solution at about 1.0 mg/mL, which was then tested for chemical stability by HPLC analysis using Shimadzu LC-20ADxr.

[4] = as above; type: physicochemical; conditions: 40° C./75% humidity, sealed and protected from light

T1 sequence (O75116 whole entry): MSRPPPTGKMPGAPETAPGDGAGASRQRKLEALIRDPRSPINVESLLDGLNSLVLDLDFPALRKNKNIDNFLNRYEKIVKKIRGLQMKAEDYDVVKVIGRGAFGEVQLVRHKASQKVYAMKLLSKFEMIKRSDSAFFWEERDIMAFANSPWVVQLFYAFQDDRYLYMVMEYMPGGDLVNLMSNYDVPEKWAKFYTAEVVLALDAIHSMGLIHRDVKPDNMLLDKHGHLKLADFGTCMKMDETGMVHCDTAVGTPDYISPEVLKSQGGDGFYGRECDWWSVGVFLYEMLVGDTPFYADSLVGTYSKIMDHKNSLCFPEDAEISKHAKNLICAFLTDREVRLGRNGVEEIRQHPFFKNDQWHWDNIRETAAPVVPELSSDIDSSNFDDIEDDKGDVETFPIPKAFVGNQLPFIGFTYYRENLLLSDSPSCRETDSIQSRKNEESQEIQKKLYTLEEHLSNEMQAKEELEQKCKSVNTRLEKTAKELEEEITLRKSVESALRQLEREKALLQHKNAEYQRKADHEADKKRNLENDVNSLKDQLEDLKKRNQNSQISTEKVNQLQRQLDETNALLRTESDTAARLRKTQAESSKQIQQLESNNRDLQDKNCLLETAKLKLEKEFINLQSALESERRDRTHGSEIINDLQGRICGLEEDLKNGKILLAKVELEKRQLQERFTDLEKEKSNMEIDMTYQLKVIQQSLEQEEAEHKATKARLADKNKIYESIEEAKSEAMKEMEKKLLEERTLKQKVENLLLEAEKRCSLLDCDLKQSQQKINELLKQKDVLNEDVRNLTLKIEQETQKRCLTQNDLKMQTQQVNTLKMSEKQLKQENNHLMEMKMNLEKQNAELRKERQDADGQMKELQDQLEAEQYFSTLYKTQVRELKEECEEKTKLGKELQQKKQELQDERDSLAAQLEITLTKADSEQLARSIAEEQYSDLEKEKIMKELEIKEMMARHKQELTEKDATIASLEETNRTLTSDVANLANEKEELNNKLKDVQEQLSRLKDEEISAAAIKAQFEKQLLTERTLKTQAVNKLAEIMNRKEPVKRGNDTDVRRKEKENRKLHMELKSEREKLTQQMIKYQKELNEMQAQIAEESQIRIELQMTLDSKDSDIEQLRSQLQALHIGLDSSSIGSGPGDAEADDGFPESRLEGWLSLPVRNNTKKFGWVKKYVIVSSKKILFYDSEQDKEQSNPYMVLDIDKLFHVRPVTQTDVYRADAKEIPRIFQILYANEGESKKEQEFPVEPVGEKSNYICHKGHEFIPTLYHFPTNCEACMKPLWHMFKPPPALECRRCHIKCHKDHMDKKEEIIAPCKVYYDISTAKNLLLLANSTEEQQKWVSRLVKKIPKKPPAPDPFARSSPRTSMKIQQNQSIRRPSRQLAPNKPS
T2 sequence (Q13464 whole entry): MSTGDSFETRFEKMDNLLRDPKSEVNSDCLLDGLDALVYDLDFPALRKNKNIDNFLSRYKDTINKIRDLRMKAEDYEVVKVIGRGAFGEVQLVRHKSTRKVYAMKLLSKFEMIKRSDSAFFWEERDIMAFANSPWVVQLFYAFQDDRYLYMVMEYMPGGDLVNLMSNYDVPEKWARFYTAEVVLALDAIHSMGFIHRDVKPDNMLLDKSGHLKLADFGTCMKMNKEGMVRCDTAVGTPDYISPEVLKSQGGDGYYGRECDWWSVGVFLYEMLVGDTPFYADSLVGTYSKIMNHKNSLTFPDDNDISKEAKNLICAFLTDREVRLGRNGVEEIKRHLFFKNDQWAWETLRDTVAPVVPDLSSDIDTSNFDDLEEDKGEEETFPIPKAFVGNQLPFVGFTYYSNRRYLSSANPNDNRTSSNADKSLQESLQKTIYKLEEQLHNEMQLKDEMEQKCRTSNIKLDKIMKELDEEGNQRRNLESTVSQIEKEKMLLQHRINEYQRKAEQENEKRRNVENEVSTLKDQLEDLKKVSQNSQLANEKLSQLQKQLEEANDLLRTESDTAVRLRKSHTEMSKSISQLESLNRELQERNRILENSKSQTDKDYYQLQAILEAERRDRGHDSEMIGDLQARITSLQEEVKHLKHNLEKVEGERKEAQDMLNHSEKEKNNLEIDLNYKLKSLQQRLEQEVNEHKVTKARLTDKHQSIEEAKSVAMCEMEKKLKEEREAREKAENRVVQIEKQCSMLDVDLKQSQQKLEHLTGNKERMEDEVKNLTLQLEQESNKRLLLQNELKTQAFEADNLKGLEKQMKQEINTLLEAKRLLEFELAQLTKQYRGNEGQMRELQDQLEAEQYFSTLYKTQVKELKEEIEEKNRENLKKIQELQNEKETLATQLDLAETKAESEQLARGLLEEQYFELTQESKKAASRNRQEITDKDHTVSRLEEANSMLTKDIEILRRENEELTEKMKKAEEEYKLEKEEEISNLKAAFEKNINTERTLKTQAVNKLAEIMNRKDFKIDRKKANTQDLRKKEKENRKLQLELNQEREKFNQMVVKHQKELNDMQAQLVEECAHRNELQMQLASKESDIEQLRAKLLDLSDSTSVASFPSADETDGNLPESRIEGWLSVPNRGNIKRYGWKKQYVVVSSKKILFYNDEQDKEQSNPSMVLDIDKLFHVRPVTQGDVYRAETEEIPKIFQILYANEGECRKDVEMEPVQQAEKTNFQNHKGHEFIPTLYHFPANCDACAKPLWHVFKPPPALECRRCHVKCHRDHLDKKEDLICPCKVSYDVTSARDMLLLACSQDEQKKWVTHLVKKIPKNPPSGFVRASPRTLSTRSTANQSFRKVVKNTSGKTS

Question: Which IC50 (ROCK2 kinase) does the source give for `Cn1c(C(=O)N2CC(F)(F)C2)cc2c1CN(c1ncc(F)c(Nc3ccc(-c4cn[nH]c4)cc3)n1)CC2` [Compound I, (6-(4-((4-(1H-pyrazol-4-yl)phenyl)amino)-5-fluoropyrimidin-2-yl)-1-methyl-4,5,6,7-tetrahydro-1H-pyrrolo[2,3-c]pyridin-2-yl)(3,3-difluoroazetidin-1-yl)methanone] here?
Answer: 0.0365 µM

Question: What about the IC50 (ROCK1 kinase) of the same compound?
Answer: > 4.5 µM

Question: And the CC50 at 48 h [1]?
Answer: > 100 µM

Question: And the AUC(0-t) [2]?
Answer: 2040 ng·h/mL

Question: And the Cmax [2]?
Answer: 251 ng/mL

Question: What does the source list for `Cn1c(C(=O)N2CC(F)(F)C2)cc2c1CN(c1ncc(F)c(Nc3ccc(-c4cn[nH]c4)cc3)n1)CC2.O=C(O)C(O)C(O)C(=O)O` [Crystal form I of tartrate]?
Answer: stability in chemical properties ([3]; 25° C./60% humidity and 40° C./75% humidity (sealed and protected from light)): substantially stable; Purity (%), 230 nm, Month 1 ([3]; 25° C./60% humidity): 99.00%; Purity (%), 230 nm, Month 3 ([3]; 25° C./60% humidity): 99.02%; Purity (%), 230 nm, Month 1 ([3]; 40° C./75% humidity): 98.95%; Purity (%), 230 nm, Month 3 ([3]; 40° C./75% humidity): 99.04%; Purity (%), 230 nm, Day 0 ([3]; Day 0): 98.98%; Purity (%), 230 nm, Month 2 [4]: 99.18%
